± gives the expanded uncertainty stated by the source.
Assays:
[1] = 298.15 K; 101.33 kPa; Liquid
[2] = refractive index (Na D-line) (dimensionless); settings: 298.15 K; 101.33 kPa; Liquid; Standard Abbe refractometry

| mass density [1] [kg/m3] | refractive index [2] | SMILES |
| --- | --- | --- |
| 785.27 ± 0.98 | 1.35928 ± 0.00052 | CCO [ethanol] |
| 873.57 ± 0.96 | 1.49764 ± 0.00054 | c1ccccc1 [benzene] |

Reference: the NIST ThermoML archive (doi:10.1021/je600578u)
